Patent US10894788B2, “Inhibitors of cyclin-dependent kinases” (Kinnate Biopharma Inc., priority 2018, dated 2021)

The molecules below were run against CDK12 (Homo sapiens (Human), UniProt Q9NYV4) (assay: Radiometric protein kinase assay (33PanQinase Activity Assay), Assay Condition B (thiol-free conditions)). Settings: thiol-free conditions (1 mM TCEP, glutathione removed).
CDK12, sequence (Q9NYV4 whole entry): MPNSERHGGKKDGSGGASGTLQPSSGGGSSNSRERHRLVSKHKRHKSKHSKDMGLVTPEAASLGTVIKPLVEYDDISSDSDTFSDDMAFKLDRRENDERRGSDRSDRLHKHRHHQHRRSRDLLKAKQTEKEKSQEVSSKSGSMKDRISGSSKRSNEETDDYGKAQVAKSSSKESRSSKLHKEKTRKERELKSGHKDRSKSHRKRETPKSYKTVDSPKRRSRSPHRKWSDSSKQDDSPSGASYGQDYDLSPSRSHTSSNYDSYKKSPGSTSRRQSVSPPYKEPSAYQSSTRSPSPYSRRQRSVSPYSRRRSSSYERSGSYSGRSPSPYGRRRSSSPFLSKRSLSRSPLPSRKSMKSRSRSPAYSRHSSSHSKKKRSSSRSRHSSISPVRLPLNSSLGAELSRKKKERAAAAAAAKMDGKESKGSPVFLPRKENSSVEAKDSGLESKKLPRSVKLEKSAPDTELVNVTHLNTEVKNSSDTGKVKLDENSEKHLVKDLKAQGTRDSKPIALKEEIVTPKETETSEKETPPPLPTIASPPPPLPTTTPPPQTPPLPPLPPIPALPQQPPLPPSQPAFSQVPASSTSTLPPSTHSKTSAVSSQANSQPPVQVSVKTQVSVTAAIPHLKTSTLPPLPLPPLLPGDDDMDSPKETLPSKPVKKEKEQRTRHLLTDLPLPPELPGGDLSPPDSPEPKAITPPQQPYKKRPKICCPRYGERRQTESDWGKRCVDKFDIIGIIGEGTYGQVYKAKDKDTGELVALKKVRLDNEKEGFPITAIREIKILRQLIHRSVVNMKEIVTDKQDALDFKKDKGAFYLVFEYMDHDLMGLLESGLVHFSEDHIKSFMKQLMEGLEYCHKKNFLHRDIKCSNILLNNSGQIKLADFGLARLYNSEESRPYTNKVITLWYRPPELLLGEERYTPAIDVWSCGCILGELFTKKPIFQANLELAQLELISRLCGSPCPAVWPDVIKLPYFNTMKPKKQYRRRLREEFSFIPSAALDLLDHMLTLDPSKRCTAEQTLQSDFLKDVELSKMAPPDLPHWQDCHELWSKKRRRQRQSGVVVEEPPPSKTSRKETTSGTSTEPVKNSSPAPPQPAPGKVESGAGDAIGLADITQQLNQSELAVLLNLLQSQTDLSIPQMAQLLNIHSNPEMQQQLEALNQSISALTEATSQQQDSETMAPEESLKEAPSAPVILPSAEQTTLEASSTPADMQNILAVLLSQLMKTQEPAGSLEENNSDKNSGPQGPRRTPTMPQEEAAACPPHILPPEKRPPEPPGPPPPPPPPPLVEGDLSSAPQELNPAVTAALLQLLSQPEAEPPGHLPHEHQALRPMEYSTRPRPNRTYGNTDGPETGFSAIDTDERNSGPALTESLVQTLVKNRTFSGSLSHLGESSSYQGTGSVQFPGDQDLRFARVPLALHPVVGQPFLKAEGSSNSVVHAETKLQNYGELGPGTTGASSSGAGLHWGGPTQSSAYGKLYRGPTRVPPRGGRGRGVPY
CDK12, sequence (O75909 whole entry partner): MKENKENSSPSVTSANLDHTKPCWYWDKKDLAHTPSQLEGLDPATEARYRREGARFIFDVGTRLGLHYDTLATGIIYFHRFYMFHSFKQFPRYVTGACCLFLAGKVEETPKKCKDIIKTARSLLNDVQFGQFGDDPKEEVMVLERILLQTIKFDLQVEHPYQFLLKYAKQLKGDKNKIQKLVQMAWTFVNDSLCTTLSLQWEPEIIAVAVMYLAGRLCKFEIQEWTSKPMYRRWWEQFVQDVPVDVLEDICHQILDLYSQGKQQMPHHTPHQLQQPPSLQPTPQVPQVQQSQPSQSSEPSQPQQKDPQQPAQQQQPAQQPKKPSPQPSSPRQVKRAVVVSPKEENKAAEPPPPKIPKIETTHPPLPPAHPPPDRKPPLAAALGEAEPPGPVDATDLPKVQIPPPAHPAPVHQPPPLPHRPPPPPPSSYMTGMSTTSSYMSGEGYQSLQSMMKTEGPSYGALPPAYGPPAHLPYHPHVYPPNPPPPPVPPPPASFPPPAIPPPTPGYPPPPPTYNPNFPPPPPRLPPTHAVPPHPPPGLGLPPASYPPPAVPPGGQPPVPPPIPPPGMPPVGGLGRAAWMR
Assay type: biochemical
Description: Example 2—Assay Condition B (Thiol-Free Conditions)
The IC50 profile of compounds was determined using one protein kinase in a customized, thiol free assay. […] Prior to testing, the 1×10^−03 M stock solutions in column 2 of the master plates were subjected to a serial, semi-logarithmic dilution using 100% DMSO as a solvent. […] Column 1 and 7 were filled with 100% DMSO as controls. Subsequently, 2×10 microliter from each well of the serial diluted copy plates were aliquoted with a 96 channel pipettor into two identical sets of “compound dilution plates”. All plates were barcoded for automated identification and tracking purposes. […] All compounds were stored as powder until being solubilized in DMSO. Solubilized compounds were stored as 1×10^−02 M/100% DMSO stock solutions. Prior to the assay process, 90 microliters of H2O were added to each well of a set of compound dilution plates. To minimize potential precipitation, the H2O was added to each plate only a few minutes before the transfer of the compound solutions into the assay plates. Each plate was shaken thoroughly, resulting in compound dilution plates with a final of 10% DMSO. For each assay, 5 microliters of solution from each well of the compound dilution plates/10% DMSO were transferred into the assay plate. The final volume of the assay was 50 μl. All compounds were tested at 10 final assay concentrations in the range from 1×10^−05 M to 3×10^−10 M, in singlicate. The final DMSO concentration in the reaction cocktails was 1% in all cases. A radiometric protein kinase assay (33PanQinase® Activity Assay) was used for measuring the kinase activity of the protein kinase. All kinase assays were performed in 96-well FlashPlates™ from PerkinElmer (Boston, Mass., USA) in a 50 microliter reaction volume. The reaction cocktail was pipetted in four steps in the following order: 20 microliter of assay buffer (standard buffer)·5 microliter of ATP solution (in H2O)·5 microliter of test compound (in 10% DMSO)·20 microliter enzyme/substrate mix. […] For all experiments labeled as “Thiol-free”, all glutathione was exchanged from protein preparations so as to be removed from the assay and final buffer conditions contained no thiol-containing reagents. This was done so there would be no interference with the key cysteines in the proteins of interest.
For data analysis, the median value of the counts in column 1 (n=8) of each assay plate was defined as “low control”. This value reflects unspecific binding of radioactivity to the plate in the absence of a protein kinase but in the presence of the substrate. The median value of the counts in column 7 of each assay plate (n=8) was taken as the “high control”, i.e. full activity in the absence of any inhibitor. The difference between high and low control was taken as 100% activity. As part of the data evaluation the low control value from a particular plate was subtracted from the high control value as well as from all 80 “compound values” of the corresponding plate. The residual activity (in %) for each well of a particular plate was calculated by using the following formula: Res. Activity (%)=100×[(cpm of compound−low control)/(high control−low control)]
The residual activities for each concentration and the compound IC50 values were calculated using Quattro Workflow V3.1.1 (Quattro Research GmbH, Munich, Germany; www.quattro-research.com). […] The fitting method used was a least-squares fit. As a parameter for assay quality, the Z′-factor (Zhang et al., J. Biomol. Screen. 2: 67-73, 1999) for the low and high controls of each assay plate (n=8) was used. ProQinase's criterion for repetition of an assay plate is a Z′-factor below 0.4 (Iversen et al., J. Biomol. Screen. 3: 247-252, 2006).
For `C=CC(=O)Nc1ccc(C(=O)N2CC[C@@H](Nc3ncc(Cl)c(OC)n3)C2)cc1N1CCOCC1` [Example 10, (R)—N-(4-(3-((5-chloro-4-methoxypyrimidin-2-yl)amino)pyrrolidine-1-carbonyl)-2-morpholinophenyl)acrylamide], the IC50 was < 100 nM.
For `C=CC(=O)Nc1ccc(C(=O)N2CC[C@@H](Nc3ncc(Cl)c(OC)n3)C2)cc1N1CCCCC1` [Example 11, (R)—N-(4-(3-((5-chloro-4-methoxypyrimidin-2-yl)amino)pyrrolidine-1-carbonyl)-2-(piperidin-1-yl)phenyl)acrylamide], the IC50 was < 100 nM.
`C=CC(=O)Nc1ccc(C(=O)N2CC[C@@H](Nc3ncc(Cl)cn3)C2)cc1-c1cnn(C)c1` [Example 12, (R)—N-(4-(3-((5-chloropyrimidin-2-yl)amino)pyrrolidine-1-carbonyl)-2-(1-methyl-1H-pyrazol-4-yl)phenyl)acrylamide] gave an IC50 of 100 to 1000 nM.
Molecule `CCC(=O)Nc1ccc(C(=O)N2CC[C@@H](Nc3ncc(F)c(OC4CC4)n3)C2)cc1` [Example 13, (R)—N-(4-(3-((4-cyclopropoxy-5-fluoropyrimidin-2-yl)amino)pyrrolidine-1-carbonyl)phenyl)propionamide] has an IC50 of 1000 to 10000 nM.
Work on `CCC(=O)Nc1ccc(C(=O)N2CC[C@@H](Nc3ncc(Cl)c(OC4CC4)n3)C2)cc1` [Example 15, (R)—N-(4-(3-((5-chloro-4-cyclopropoxypyrimidin-2-yl)amino)pyrrolidine-1-carbonyl)phenyl)propionamide] yielded an IC50 of 100 to 1000 nM.
For `CCC(=O)Nc1ccc(C(=O)N2CC[C@@H](Nc3ncc(C)c(OC4CC4)n3)C2)cc1` [Example 16, (R)—N-(4-(3-((4-cyclopropoxy-5-methylpyrimidin-2-yl)amino)pyrrolidine-1-carbonyl)phenyl)propionamide], the IC50 was 1000 to 10000 nM.
`CCC(=O)Nc1ccc(C(=O)N2CC[C@@H](Nc3ncc(Cl)c(OCC(F)(F)F)n3)C2)cc1` [Example 18, (R)—N-(4-(3-((5-chloro-4-(2,2,2-trifluoroethoxy)pyrimidin-2-yl)amino)pyrrolidine-1-carbonyl)phenyl)propionamide] gave an IC50 of 100 to 1000 nM.
For `C=CC(=O)Nc1ccc(C(=O)N2CC[C@@H](Nc3ncc(Cl)c(OC4CC4)n3)C2)cc1` [Example 21, (R)—N-(4-(3-((5-chloro-4-cyclopropoxypyrimidin-2-yl)amino)pyrrolidine-1-carbonyl)phenyl)acrylamide], the IC50 was < 100 nM.
`C=CC(=O)Nc1ccc(C(=O)N2CC[C@@H](Nc3ncc(C)c(OC4CC4)n3)C2)cc1` [Example 22, (R)—N-(4-(3-((4-cyclopropoxy-5-methylpyrimidin-2-yl)amino)pyrrolidine-1-carbonyl)phenyl)acrylamide] gave an IC50 of 100 to 1000 nM.
`C=CC(=O)Nc1ccc(C(=O)N2CC[C@@H](Nc3ncc(F)c(OC4CC4)n3)C2)cc1` [Example 23, (R)—N-(4-(3-((4-cyclopropoxy-5-fluoropyrimidin-2-yl)amino)pyrrolidine-1-carbonyl)phenyl)acrylamide] was tested, and the IC50 was 100 to 1000 nM.
In the case of `C=CC(=O)Nc1ccc(C(=O)N2CC[C@@H](Nc3ncc(Cl)c(OCC(F)(F)F)n3)C2)cc1` [Example 24, (R)—N-(4-(3-((5-chloro-4-(2,2,2-trifluoroethoxy)pyrimidin-2-yl)amino)pyrrolidine-1-carbonyl)phenyl)acrylamide], the IC50 is reported as < 100 nM.
`C=CC(=O)N1CCc2cc(C(=O)N3CC[C@@H](Nc4ncc(Cl)c(OC)n4)C3)ccc21` [Example 27, (R)-1-(5-(3-((5-chloro-4-methoxypyrimidin-2-yl)amino)pyrrolidine-1-carbonyl)indolin-1-yl)prop-2-en-1-one] was tested, and the IC50 was < 100 nM.
In the case of `C=CC(=O)N1CCc2cc(C(=O)N3CC[C@@H](Nc4ncc(Cl)cn4)C3)ccc21` [Example 30, (R)-1-(5-(3-((5-chloropyrimidin-2-yl)amino)pyrrolidine-1-carbonyl)indolin-1-yl)prop-2-en-1-one], the IC50 is reported as < 100 nM.
With `C=CC(=O)Nc1ccc(C(=O)N2CC[C@@H](Nc3ncc(Cl)cn3)C2)cc1OC` [Example 31, (R)—N-(4-(3-((5-chloropyrimidin-2-yl)amino)pyrrolidine-1-carbonyl)-2-methoxyphenyl)acrylamide] the IC50 was < 100 nM.
`C=CC(=O)Nc1ccc(C(=O)N2CC[C@@H](Nc3ncc(Cl)cn3)C2)c(C)c1` [Example 32, (R)—N-(4-(3-((5-chloropyrimidin-2-yl)amino)pyrrolidine-1-carbonyl)-3-methylphenyl)acrylamide] was tested, and the IC50 was 100 to 1000 nM.
With `C=CC(=O)Nc1c(C)cc(C(=O)N2CC[C@@H](Nc3ncc(Cl)cn3)C2)cc1C` [Example 33, (R)—N-(4-(3-((5-chloropyrimidin-2-yl)amino)pyrrolidine-1-carbonyl)-2,6-dimethylphenyl)acrylamide] the IC50 was 1000 to 10000 nM.
`C=CC(=O)N1CCOc2cc(C(=O)N3CC[C@@H](Nc4ncc(Cl)cn4)C3)ccc21` [Example 34, (R)-1-(7-(3-((5-chloropyrimidin-2-yl)amino)pyrrolidine-1-carbonyl)-2H-benzo[b][1,4]oxazin-4(3H)-yl)prop-2-en-1-one] was tested, and the IC50 was 100 to 1000 nM.
`C=CC(=O)Nc1ccc(C(=O)N2CCC[C@@H](Nc3nccc(-c4ccnn4C)n3)C2)cc1` [Example 35, (R)—N-(4-(3-((4-(1-methyl-1H-pyrazol-5-yl)pyrimidin-2-yl)amino)piperidine-1-carbonyl)phenyl)acrylamide] showed an IC50 of 30000 to 100000 nM.
`C=CC(=O)Nc1ccc(C(=O)N2CCC[C@@H](Nc3nccc(N4CCOCC4)n3)C2)cc1` [Example 36, (R)—N-(4-(3-((4-morpholinopyrimidin-2-yl)amino)piperidine-1-carbonyl)phenyl)acrylamide] gave an IC50 of 30000 to 100000 nM.
`C=CC(=O)Nc1ccc(C(=O)N2CCC[C@@H](Nc3nccc(OC)n3)C2)cc1` [Example 37, (R)—N-(4-(3-((4-methoxypyrimidin-2-yl)amino)piperidine-1-carbonyl)phenyl)acrylamide] gave an IC50 of 1000 to 10000 nM.
With `C=CC(=O)Nc1ccc(C(=O)N2CCC[C@@H](Nc3cnc(Cl)cn3)C2)cc1` [Example 38, (R)—N-(4-(3-((5-chloropyrazin-2-yl)amino)piperidine-1-carbonyl)phenyl)acrylamide] the IC50 was 10000 to 30000 nM.
`C=CC(=O)Nc1ccc(C(=O)N2CCC[C@@H](Nc3nccc(-c4cnn(C)c4)n3)C2)cc1` [Example 39, (R)—N-(4-(3-((4-(1-methyl-1H-pyrazol-4-yl)pyrimidin-2-yl)amino)piperidine-1-carbonyl)phenyl)acrylamide] gave an IC50 of 30000 to 100000 nM.
In the case of `C=CC(=O)Nc1ccc(C(=O)N2CCC[C@@H](Nc3nccc(OC4CCCC4)n3)C2)cc1` [Example 40, (R)—N-(4-(3-((4-(cyclopentyloxy)pyrimidin-2-yl)amino)piperidine-1-carbonyl)phenyl)acrylamide], the IC50 is reported as 10000 to 30000 nM.
With `CCC(=O)Nc1ccc(C(=O)N2CCC[C@@H](Nc3nccc(-c4cn[nH]c4)n3)C2)cc1` [Example 41, (R)—N-(4-(3-((4-(1H-pyrazol-4-yl)pyrimidin-2-yl)amino)piperidine-1-carbonyl)phenyl)propionamide] the IC50 was 30000 to 100000 nM.
For `CCC(=O)Nc1ccc(C(=O)N2CCC[C@@H](Nc3nccc(N4CCOCC4)n3)C2)cc1` [Example 42, (R)—N-(4-(3-((4-morpholinopyrimidin-2-yl)amino)piperidine-1-carbonyl)phenyl)propionamide], the IC50 was 30000 to 100000 nM.
With `CCC(=O)Nc1ccc(C(=O)N2CC[C@@H](Nc3nccc(-c4cn[nH]c4)n3)C2)cc1` [Example 43] the IC50 was 1000 to 10000 nM.
For `C=CC(=O)Nc1ccc(C(=O)N2CC[C@@H](Nc3nccc(-c4cn[nH]c4)n3)C2)cc1` [Example 44, (R)—N-(4-(3-((4-(1H-pyrazol-4-yl)pyrimidin-2-yl)amino)pyrrolidine-1-carbonyl)phenyl)acrylamide], the IC50 was 100 to 1000 nM.
Molecule `C=CC(=O)N1CCOc2cc(C(=O)N3CC[C@@H](Nc4ncc(Cl)cn4)C3)ccc21` [Example 51, (R)-1-(7-(3-((5-chloropyrimidin-2-yl)amino)pyrrolidine-1-carbonyl)-2H-benzo[b][1,4]oxazin-4(3H)-yl)prop-2-en-1-one] has an IC50 of 100 to 1000 nM.
